Strand notation (5' to 3'): a small letter for the sugar, then the base; units joined by * are phosphorothioate-linked, units joined directly phosphodiester-linked; [ ] holds rarer units or linkages, { } end groups; capitals alone tell only the bases. k = constrained ethyl (cEt); [5mC] = 5-methylcytosine; d = 2'-deoxy (DNA)
system: Yap1 mRNA; assay: Antisense inhibition of human Yap1 in A-431 cells by cEt gapmers, single dose (Example 2, RTS4814); format: cell-based; details: A-431 cells, 5,000 cells per well, free uptake, 2,000 nM modified oligonucleotide, approx. 48 hours, RTS4814, normalized to RIBOGREEN; Table 4; asterisk (*) = targets amplicon region of primer probe set
Method in brief: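 Single-dose knockdown screen of 3-10-3 cEt phosphorothioate gapmers at 2,000 nM added by free uptake to A-431 cells. After roughly 48 h, RNA was isolated and Yap1 transcript measured by RT-qPCR, with results given as % UTC.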

Substance | YAP1 (% UTC)
716466 (kG*kT*kG*dG*dA*dG*d[5mC]*dA*d[5mC]*dT*d[5mC]*d[5mC]*d[5mC]*k[5mC]*kT*kA; antisense) [Compound 716466] | 58
716520 (antisense kA*kG*kT*d[5mC]*dT*dT*dT*dA*dT*dT*dA*dA*dA*kG*kA*kG) [Compound 716520] | 96
716424 (kG*k[5mC]*kA*dA*dT*dG*dG*dA*d[5mC]*dA*dA*dG*dG*kA*kA*kG; antisense) [Compound 716424] | 25
716493 (kA*k[5mC]*kA*dT*dT*dG*dA*dA*dA*dG*dA*d[5mC]*d[5mC]*k[5mC]*kT*kT; antisense) [Compound 716493] | 30

same assay, conditions: Table 5; A-431 cells, 5,000 cells per well, free uptake, 2,000 nM modified oligonucleotide, approx. 48 hours; RTS4814; normalized to RIBOGREEN; Yap1 mRNA relative to untreated control cells

Substance | YAP1 (% UTC)
716539 (antisense kA*kA*kT*dA*dG*dT*dG*d[5mC]*dT*dT*dT*dG*dG*kA*kA*kG) [Compound 716539] | 59
716437 (k[5mC]*k[5mC]*kA*dG*dT*dA*dA*dA*dT*d[5mC]*dA*dT*dG*kT*kT*kT; antisense) [Compound 716437] | 41
716470 (kA*kA*kT*d[5mC]*dG*dA*dG*dA*d[5mC]*dT*dT*dA*dA*kA*kA*kA; antisense) [Compound 716470] | 104
716350 (k[5mC]*kT*k[5mC]*dG*dG*dA*d[5mC]*d[5mC]*dT*dG*d[5mC]*dG*dG*k[5mC]*kG*k[5mC]; antisense) [Compound 716350] | 99
716545 (kG*k[5mC]*kA*dT*dG*dT*dA*dT*dT*dT*dA*dA*dT*kA*kT*kG; antisense) [Compound 716545] | 91

same assay, conditions: Table 6; A-431 cells, 5,000 cells per well, free uptake, 2,000 nM modified oligonucleotide, approx. 48 hours; RTS4814; normalized to RIBOGREEN; Yap1 mRNA relative to untreated control cells

Substance | YAP1 (% UTC)
716495 (kG*kT*kT*dA*dT*dG*dA*dA*d[5mC]*d[5mC]*d[5mC]*dT*dT*kG*kA*kA; antisense) [Compound 716495] | 58
716441 (kG*k[5mC]*k[5mC]*dT*dT*dG*dG*dT*dT*dT*d[5mC]*dA*dG*k[5mC]*kT*kA; antisense) [Compound 716441] | 57
716552 (kT*kT*kT*d[5mC]*dT*d[5mC]*dA*dG*dA*dT*dG*dT*dA*k[5mC]*k[5mC]*kA; antisense) [Compound 716552] | 53

same assay, conditions: Table 18; A-431 cells, 5,000 cells per well, free uptake, 2,000 nM modified oligonucleotide, approx. 48 hours; RTS4814; normalized to RIBOGREEN; Yap1 mRNA as percent of untreated control

Substance | YAP1 (% UTC)
1076004 (kT*kA*kA*dT*dT*dT*dA*dA*dT*dG*dG*d[5mC]*dT*kT*kG*k[5mC]; antisense) [Compound 1076004] | 2
1075780 (kT*kA*kT*dA*dA*dT*dA*dA*dT*d[5mC]*d[5mC]*dA*dG*kA*kA*k[5mC]; antisense) [Compound 1075780] | 98

same assay, conditions: Table 19; A-431 cells, 5,000 cells per well, free uptake, 2,000 nM modified oligonucleotide, approx. 48 hours; RTS4814; normalized to RIBOGREEN; Yap1 mRNA as percent of untreated control

Substance | YAP1 (% UTC)
1074853 (antisense k[5mC]*kA*kA*dT*dT*dG*dT*dT*dA*dT*dG*dA*dT*kA*kG*kG) [Compound 1074853] | 15
1074501 (kA*k[5mC]*kT*dA*d[5mC]*dA*dA*dT*dA*dA*d[5mC]*d[5mC]*dA*kT*k[5mC]*k[5mC]; antisense) [Compound 1074501] | 9

same assay, conditions: Table 20; Yap1 mRNA, percent of untreated control; 3-10-3 cEt gapmers targeting SEQ ID NO.: 1 and 2

Substance | YAP1 (% UTC)
1075558 (kA*kT*kA*dT*dT*dA*dA*dG*dG*dT*dG*dG*d[5mC]*kT*kT*kA; antisense) [Compound 1075558] | 51
1074502 (kA*kA*k[5mC]*dT*dA*d[5mC]*dA*dA*dT*dA*dA*d[5mC]*d[5mC]*kA*kT*k[5mC]; antisense) [Compound 1074502] | 31

same assay, conditions: Table 21; Yap1 mRNA, percent of untreated control; 3-10-3 cEt gapmers targeting SEQ ID NO.: 1 and 2

Substance | YAP1 (% UTC)
1075879 (kG*kA*kA*dT*dA*dA*dA*dG*dA*dA*dG*dT*d[5mC]*kA*k[5mC]*k[5mC]; antisense) [Compound 1075879] | 77
1075751 (kG*kA*kG*dG*dA*dA*d[5mC]*dA*dA*dG*dA*dT*d[5mC]*kT*k[5mC]*kA; antisense) [Compound 1075751] | 72
1074535 (antisense kG*kT*kA*dA*dT*dA*dG*d[5mC]*dT*d[5mC]*dT*dT*dT*k[5mC]*kT*kA) [Compound 1074535] | 5
1075655 (k[5mC]*kT*kA*dT*dT*dA*dA*dG*dA*d[5mC]*dG*dA*dA*kT*k[5mC]*k[5mC]; antisense) [Compound 1075655] | 38

same assay, conditions: Table 22; Yap1 mRNA as percent of untreated control; 3-10-3 cEt gapmers; single dose

Substance | YAP1 (% UTC)
1075144 (antisense kA*k[5mC]*k[5mC]*d[5mC]*dT*dA*dT*dA*dT*d[5mC]*d[5mC]*dT*dA*kT*kA*kT) [Compound 1075144] | 82

same assay, conditions: Table 23; Yap1 mRNA as percent of untreated control; 3-10-3 cEt gapmers; single dose

Substance | YAP1 (% UTC)
1075593 (k[5mC]*kA*kT*dT*dA*dG*dA*dG*dT*dA*dT*dG*dA*kA*k[5mC]*kT; antisense) [Compound 1075593] | 99
1075561 (kG*kT*kA*dA*dG*dT*dA*dA*dG*dG*dG*dA*dA*k[5mC]*k[5mC]*k[5mC]; antisense) [Compound 1075561] | 32
1075177 (antisense kG*kA*kA*dA*dT*dT*dA*d[5mC]*d[5mC]*d[5mC]*dG*dG*dG*kA*kA*k[5mC]) [Compound 1075177] | 27
1076425 (k[5mC]*kG*kG*dG*dA*dA*dA*dA*dT*dT*d[5mC]*dT*dG*kG*kA*kG; antisense) [Compound 1076425] | 32

same assay, conditions: Table 24; Yap1 mRNA as percent of untreated control; 3-10-3 cEt gapmers targeting SEQ ID NO.: 1, and 2

Substance | YAP1 (% UTC)
1074730 (antisense kT*kA*kT*d[5mC]*dA*d[5mC]*dA*dG*dT*dA*d[5mC]*dT*dG*k[5mC]*kT*kA) [Compound 1074730] | 46
1075050 (antisense kA*k[5mC]*k[5mC]*d[5mC]*dA*dA*d[5mC]*dG*dG*dT*d[5mC]*dA*dT*kG*kT*kT) [Compound 1075050] | 94
1076490 (antisense k[5mC]*k[5mC]*kA*dA*dA*dA*dT*dA*dG*dG*dT*dG*dA*kG*kT*k[5mC]) [Compound 1076490] | 2

same assay, conditions: Table 25; Yap1 mRNA as percent of untreated control; 3-10-3 cEt gapmers targeting SEQ ID NO.: 1, and 2

Substance | YAP1 (% UTC)
1075947 (k[5mC]*kT*kT*dT*dA*dT*dA*dG*dG*dA*dA*dT*dA*kG*kA*kG; antisense) [Compound 1075947] | 95
1076235 (kT*k[5mC]*kA*dA*dA*dA*dT*dA*dA*dT*d[5mC]*dA*dG*k[5mC]*k[5mC]*k[5mC]; antisense) [Compound 1076235] | 34

same assay, conditions: Table 32; Yap1 mRNA, percent of untreated control; 3-10-3 cEt gapmers targeting SEQ ID NO.: 1, and 2

Substance | YAP1 (% UTC)
1074386 (k[5mC]*kA*kG*dG*dA*dA*dT*dG*dG*d[5mC]*dT*dT*d[5mC]*kA*kA*kG; antisense) [compound 1074386] | 39
1076306 (k[5mC]*kT*kT*dT*dA*d[5mC]*dT*dA*d[5mC]*dT*dA*dA*dT*kA*kA*kG; antisense) [compound 1076306] | 99
1075602 (antisense kT*kA*kT*dT*dA*dT*dA*dA*dG*dT*d[5mC]*dT*dA*k[5mC]*kA*kA) [compound 1075602] | 114
1075378 (antisense kA*kA*kA*dA*d[5mC]*dT*dA*dA*dT*d[5mC]*dA*dT*d[5mC]*kG*kA*kT) [compound 1075378] | 83
1074674 (antisense kT*kA*kT*dA*dG*dG*d[5mC]*dA*d[5mC]*dT*d[5mC]*d[5mC]*dT*kT*k[5mC]*k[5mC]) [compound 1074674] | 22
1074770 (kA*kT*k[5mC]*dT*dT*dA*dT*d[5mC]*d[5mC]*d[5mC]*dA*dA*dT*kG*k[5mC]*kT; antisense) [compound 1074770] | 15

same assay, conditions: Table 33; Yap1 mRNA, percent of untreated control; 3-10-3 cEt gapmers targeting SEQ ID NO.: 1, and 2

Substance | YAP1 (% UTC)
1075891 (antisense kA*kG*kA*dT*dT*dA*dA*dA*dA*dG*dT*dA*dG*kG*k[5mC]*k[5mC]) [compound 1075891] | 89
1075027 (antisense kA*kA*kA*dT*dT*dT*dG*dA*dA*d[5mC]*dT*dG*d[5mC]*k[5mC]*k[5mC]*kA) [compound 1075027] | 28
1075123 (k[5mC]*kT*kT*dT*dA*dG*dG*dA*dA*dA*dG*dG*dG*kT*kA*kT; antisense) [compound 1075123] | 21
1075635 (antisense kA*kA*kT*dA*dA*dA*d[5mC]*dA*d[5mC]*d[5mC]*dT*d[5mC]*dG*k[5mC]*k[5mC]*kA) [compound 1075635] | 97
1075059 (antisense kA*kT*kT*dT*dA*d[5mC]*dT*dT*dT*dG*dG*dA*dT*kG*kT*k[5mC]) [compound 1075059] | 11

same assay, conditions: Yap1 mRNA as percent of untreated control; A-431 cells; 3-10-3 cEt gapmers targeting SEQ ID NO.: 1, and 2; Table 30

Substance | YAP1 (% UTC)
1075472 (kG*kA*kT*dT*dA*dT*dA*dG*dT*dT*dA*dA*dA*k[5mC]*kA*kG; antisense) [compound 1075472] | 92
1075856 (antisense k[5mC]*k[5mC]*kT*dA*dA*dT*d[5mC]*dA*dA*dG*dT*dT*d[5mC]*kT*kG*k[5mC]) [compound 1075856] | 40

same assay, conditions: Yap1 mRNA as percent of untreated control; A-431 cells; 3-10-3 cEt gapmers targeting SEQ ID NO.: 1, and 2; Table 31

Substance | YAP1 (% UTC)
1075313 (antisense k[5mC]*kT*kT*dA*dA*dT*dT*dG*dA*dA*d[5mC]*dT*d[5mC]*kA*kG*kG) [compound 1075313] | 28

Source: patent US11214803B2, “Modulators of YAP1 expression” (Ionis Pharmaceuticals, Inc., priority 2019, dated 2022)
